Values of other authors, collected in patent US8167920B2, “Intranasal delivery of compounds that reduce intrancranial pressure” (Codman & Shurtleff, Inc., priority 2006, dated 2012).

How the values were obtained:
[1] = tested on: rat mesenteric lymphatics
[2] = tested on: mesenteries (lymphatic pump); details: 15 minutes superfusion of 30 uM into the mesenteries

Row | SMILES | inhibition of the active lymph pump [1] | increase in lymphatic pump flow index [2] [%]
1 | OO [hydrogen peroxide] | intense inhibition | –
2 | COC(=O)[C@@H](N)CCCNC(=N)N[N+](=O)[O-] [L-NAME] | – | ~40
